Test results published in patent US11878975B2, “Substituted indole compounds useful as TLR inhibitors” (BRISTOL-MYERS SQUIBB COMPANY, priority 2017, dated 2024).

How the values were obtained:
Format in all cases: cell-based
human TLR7 = biological target: T1, human TLR7 (Homo sapiens, UniProt Q9NYK1); test: TLR7 inhibition reporter assay (HEK-Blue cells, SEAP reporter, gardiquimod stimulation); conditions: HEK-Blue cells overexpressing human TLR7, SEAP reporter, gardiquimod 7.5 μM
T1 construct: host or cells: HEK-Blue cells
T1 sequence (Q9NYK1 27-1049): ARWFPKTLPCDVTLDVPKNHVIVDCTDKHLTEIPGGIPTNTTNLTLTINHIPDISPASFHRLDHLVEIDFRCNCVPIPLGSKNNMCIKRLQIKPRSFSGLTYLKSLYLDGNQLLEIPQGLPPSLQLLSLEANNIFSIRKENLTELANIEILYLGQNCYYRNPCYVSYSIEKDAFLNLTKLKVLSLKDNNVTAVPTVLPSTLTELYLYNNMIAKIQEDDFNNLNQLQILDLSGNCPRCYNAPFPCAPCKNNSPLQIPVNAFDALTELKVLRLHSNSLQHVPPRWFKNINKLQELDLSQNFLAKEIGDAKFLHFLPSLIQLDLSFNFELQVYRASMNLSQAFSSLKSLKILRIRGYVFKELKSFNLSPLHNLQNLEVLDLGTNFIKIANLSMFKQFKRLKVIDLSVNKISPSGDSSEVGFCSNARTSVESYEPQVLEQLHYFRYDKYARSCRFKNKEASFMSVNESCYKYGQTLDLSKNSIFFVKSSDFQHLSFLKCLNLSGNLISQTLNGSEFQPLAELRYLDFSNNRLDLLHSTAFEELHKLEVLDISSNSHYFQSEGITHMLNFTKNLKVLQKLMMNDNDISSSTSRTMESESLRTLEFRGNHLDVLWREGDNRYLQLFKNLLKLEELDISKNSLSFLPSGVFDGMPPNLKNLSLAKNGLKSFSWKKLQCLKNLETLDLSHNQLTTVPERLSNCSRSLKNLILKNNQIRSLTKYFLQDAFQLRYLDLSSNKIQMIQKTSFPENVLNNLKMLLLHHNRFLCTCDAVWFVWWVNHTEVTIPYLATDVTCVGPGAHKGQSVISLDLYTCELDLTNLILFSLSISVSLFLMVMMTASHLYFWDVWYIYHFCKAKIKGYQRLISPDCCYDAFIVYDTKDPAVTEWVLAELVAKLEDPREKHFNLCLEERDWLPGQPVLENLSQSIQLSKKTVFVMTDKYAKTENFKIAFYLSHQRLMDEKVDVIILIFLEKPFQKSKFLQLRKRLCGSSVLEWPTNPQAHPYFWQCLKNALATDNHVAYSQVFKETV
Summary of the method: (§1)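 SEAP readout after 22 h agonist exposure at 37 °C; final agonist levels were 7.5 μM gardiquimod (TLR7), 15.9 μM R848 (TLR8) and 5 nM ODN2006 (TLR9). Inhibitors, spanning 0.05 nM to 50 μM final, were applied 30 min beforehand.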

human TLR8 = biological target: T2, human TLR8 (Homo sapiens, UniProt Q9NR97); test: TLR8 inhibition reporter assay (HEK-Blue cells, SEAP reporter, R848 stimulation); conditions: HEK-Blue cells overexpressing human TLR8, SEAP reporter, R848 15.9 μM
T2 construct: host or cells: HEK-Blue cells
T2 sequence (Q9NR97 27-1041): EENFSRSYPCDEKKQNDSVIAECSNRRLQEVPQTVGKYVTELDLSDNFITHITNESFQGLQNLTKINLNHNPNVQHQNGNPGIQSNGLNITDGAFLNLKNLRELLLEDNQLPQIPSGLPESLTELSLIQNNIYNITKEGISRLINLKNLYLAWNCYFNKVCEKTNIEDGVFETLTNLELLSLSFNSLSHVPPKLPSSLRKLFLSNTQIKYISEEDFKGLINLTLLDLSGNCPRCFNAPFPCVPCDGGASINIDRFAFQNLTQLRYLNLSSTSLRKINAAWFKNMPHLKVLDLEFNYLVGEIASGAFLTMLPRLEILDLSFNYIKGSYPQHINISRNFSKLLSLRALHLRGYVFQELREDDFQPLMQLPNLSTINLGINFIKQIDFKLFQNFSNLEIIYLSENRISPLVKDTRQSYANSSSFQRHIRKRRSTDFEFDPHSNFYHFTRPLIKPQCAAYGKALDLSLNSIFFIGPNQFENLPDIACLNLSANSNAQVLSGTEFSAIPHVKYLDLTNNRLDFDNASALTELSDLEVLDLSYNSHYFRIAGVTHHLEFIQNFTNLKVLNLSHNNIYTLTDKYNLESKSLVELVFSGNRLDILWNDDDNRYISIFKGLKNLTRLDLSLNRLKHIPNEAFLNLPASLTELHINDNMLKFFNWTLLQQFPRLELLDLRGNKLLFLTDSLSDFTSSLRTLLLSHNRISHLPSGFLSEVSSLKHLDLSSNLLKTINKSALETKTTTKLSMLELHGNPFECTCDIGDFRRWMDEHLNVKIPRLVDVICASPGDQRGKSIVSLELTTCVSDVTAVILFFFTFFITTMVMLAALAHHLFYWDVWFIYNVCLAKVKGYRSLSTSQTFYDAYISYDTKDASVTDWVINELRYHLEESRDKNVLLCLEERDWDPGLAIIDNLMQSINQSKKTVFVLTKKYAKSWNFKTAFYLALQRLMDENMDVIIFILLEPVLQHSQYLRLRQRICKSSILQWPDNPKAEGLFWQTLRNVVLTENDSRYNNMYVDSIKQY
Summary of the method: as §1

human TLR9 = biological target: T3, human TLR9 (Homo sapiens, UniProt Q9NR96); test: TLR9 inhibition reporter assay (HEK-Blue cells, SEAP reporter, ODN2006 stimulation); conditions: HEK-Blue cells overexpressing human TLR9, SEAP reporter, ODN2006 5 nM
T3 construct: host or cells: HEK-Blue cells
T3 sequence (Q9NR96 26-1032): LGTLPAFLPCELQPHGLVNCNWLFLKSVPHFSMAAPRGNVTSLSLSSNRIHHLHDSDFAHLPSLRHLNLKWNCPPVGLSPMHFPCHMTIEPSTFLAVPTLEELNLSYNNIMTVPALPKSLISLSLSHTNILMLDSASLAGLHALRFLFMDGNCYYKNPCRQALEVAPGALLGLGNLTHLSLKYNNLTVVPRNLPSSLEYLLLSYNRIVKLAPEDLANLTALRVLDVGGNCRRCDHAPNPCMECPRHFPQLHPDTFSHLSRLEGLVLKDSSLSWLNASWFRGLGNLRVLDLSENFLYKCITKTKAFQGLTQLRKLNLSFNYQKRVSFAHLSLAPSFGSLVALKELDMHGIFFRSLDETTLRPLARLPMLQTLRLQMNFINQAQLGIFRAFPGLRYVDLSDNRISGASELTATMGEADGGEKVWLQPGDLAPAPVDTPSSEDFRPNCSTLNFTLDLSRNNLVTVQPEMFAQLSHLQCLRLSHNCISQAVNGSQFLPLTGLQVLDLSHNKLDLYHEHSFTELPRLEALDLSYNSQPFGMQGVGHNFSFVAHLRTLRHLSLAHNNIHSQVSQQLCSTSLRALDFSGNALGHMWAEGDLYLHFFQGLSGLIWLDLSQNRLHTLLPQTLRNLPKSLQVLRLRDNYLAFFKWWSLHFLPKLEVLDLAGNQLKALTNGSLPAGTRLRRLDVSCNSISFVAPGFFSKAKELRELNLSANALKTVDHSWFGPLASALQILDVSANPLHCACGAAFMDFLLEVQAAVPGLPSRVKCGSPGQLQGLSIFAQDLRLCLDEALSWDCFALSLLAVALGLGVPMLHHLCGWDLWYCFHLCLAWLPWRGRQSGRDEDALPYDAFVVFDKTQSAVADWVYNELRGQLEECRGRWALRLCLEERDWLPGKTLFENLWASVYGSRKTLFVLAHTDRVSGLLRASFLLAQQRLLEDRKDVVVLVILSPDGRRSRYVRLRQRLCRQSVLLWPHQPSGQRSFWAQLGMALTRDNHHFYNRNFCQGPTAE
Summary of the method: as §1

IC50 (human TLR7) | IC50 (human TLR8) | IC50 (human TLR9) | SMILES
3 nM | 3.3 nM | > 50000 nM | Cc1cc(-c2[nH]c3ccc(C4CCC(N5CCC(F)(F)CC5)CC4)cc3c2C(C)C)cn(C)c1=O (stereo not drawn) [Example 465]
32 nM | 26 nM | > 50000 nM | Cc1cc(-c2[nH]c3ccc(C4CCC(N5CCC(F)(F)CC5)CC4)cc3c2C(C)C)cn(C)c1=O (stereo not drawn) [Example 466]
48 nM | 33 nM | 47000 nM | Cc1cc(-c2[nH]c3ccc(C4CCC(N5CCCC(F)(F)C5)CC4)cc3c2C(C)C)cn(C)c1=O (stereo not drawn) [Example 467]
280 nM | 219 nM | > 50000 nM | Cc1cc(-c2[nH]c3ccc(C4CCC(N5CCCC(F)(F)C5)CC4)cc3c2C(C)C)cn(C)c1=O (stereo not drawn) [Example 468]
1110 nM | 3130 nM | 9020 nM | Cc1cc(-c2[nH]c3ccc(C4CCCCC4)cc3c2C(C)C)cc(C)n1 [Example 469]
568 nM | 3130 nM | 18300 nM | Cc1cc(-c2[nH]c3ccc(C4CCCCC4)cc3c2C(C)C)cn(C)c1=O [Example 470]
43 nM | 14 nM | 38300 nM | Cc1c(-c2[nH]c3ccc(C4CCC(NC(=O)CN(C)C)CC4)cc3c2C(C)C)cn(C)c(=O)c1C (stereo not drawn) [Example 471]
3 nM | 4.6 nM | 23700 nM | Cc1c(-c2[nH]c3ccc(C4CCC(NC(=O)CN(C)C)CC4)cc3c2C(C)C)cn(C)c(=O)c1C (stereo not drawn) [Example 472]
34 nM | 15 nM | 8970 nM | Cc1c(-c2[nH]c3ccc(C4CCC(NCC(=O)N(C)C)CC4)cc3c2C(C)C)cn(C)c(=O)c1C (stereo not drawn) [Example 473]
45 nM | 19 nM | 28900 nM | Cc1c(-c2[nH]c3ccc(C4CCC(NC5COC5)CC4)cc3c2C(C)C)cn(C)c(=O)c1C (stereo not drawn) [Example 474]
26 nM | 28 nM | 10600 nM | Cc1c(-c2[nH]c3ccc(C4CCC(N(C)C)CC4)cc3c2C(C)C)cn(C)c(=O)c1C (stereo not drawn) [Example 475]
3 nM | 2.6 nM | 4770 nM | Cc1c(-c2[nH]c3ccc(C4CCC(N(C)C)CC4)cc3c2C(C)C)cn(C)c(=O)c1C (stereo not drawn) [Example 476]
2 nM | 1.8 nM | 8210 nM | Cc1c(-c2[nH]c3ccc(C4CCC(NC5COC5)CC4)cc3c2C(C)C)cn(C)c(=O)c1C (stereo not drawn) [Example 477]
20 nM | 7.6 nM | 10200 nM | Cc1c(-c2[nH]c3ccc(C4CCC(NC5COC5)CC4)cc3c2C(C)C)cn(C)c(=O)c1C (stereo not drawn) [Example 478]
5 nM | 4.1 nM | 8610 nM | Cc1c(-c2[nH]c3ccc(C4CCC(NCC(=O)N(C)C)CC4)cc3c2C(C)C)cn(C)c(=O)c1C (stereo not drawn) [Example 479]
20 nM | 6.3 nM | 6200 nM | Cc1c(-c2[nH]c3ccc(C4CCC(NCC(=O)N(C)C)CC4)cc3c2C(C)C)cn(C)c(=O)c1C (stereo not drawn) [Example 480]
109 nM | 27 nM | 32800 nM | Cc1c(-c2[nH]c3ccc(C4CN(C5CCOCC5)C4)cc3c2C(C)C)cn(C)c(=O)c1C [Example 481]
34 nM | 9.2 nM | 10300 nM | Cc1c(-c2[nH]c3ccc(C4CN(C(C)C)C4)cc3c2C(C)C)cn(C)c(=O)c1C [Example 482]
61 nM | 8.8 nM | 22700 nM | Cc1c(-c2[nH]c3ccc(C4CN(CCS(C)(=O)=O)C4)cc3c2C(C)C)cn(C)c(=O)c1C [Example 483]
41 nM | 9.5 nM | 16500 nM | Cc1c(-c2[nH]c3ccc(C4CN(C(=O)CN(C)C)C4)cc3c2C(C)C)cn(C)c(=O)c1C [Example 484]
46 nM | 27 nM | 48000 nM | Cc1c(-c2[nH]c3ccc(C4CN(C5COC5)C4)cc3c2C(C)C)cn(C)c(=O)c1C [Example 485]
45 nM | 5.8 nM | 10500 nM | COCCN1CC(c2ccc3[nH]c(-c4cn(C)c(=O)c(C)c4C)c(C(C)C)c3c2)C1 [Example 487]
22 nM | 6 nM | 4240 nM | CCCN1CC(c2ccc3[nH]c(-c4cn(C)c(=O)c(C)c4C)c(C(C)C)c3c2)C1 [Example 488]
128 nM | 20 nM | 14900 nM | Cc1c(-c2[nH]c3ccc(C4CN(CC(=O)N(C)C)C4)cc3c2C(C)C)cn(C)c(=O)c1C [Example 489]
2 nM | 1 nM | 13500 nM | Cc1c(-c2[nH]c3ccc(C4CC(NC(=O)CN(C)C)C4)cc3c2C(C)C)cn(C)c(=O)c1C (stereo not drawn) [Example 490]
4 nM | 1.6 nM | 6070 nM | Cc1c(-c2[nH]c3ccc(C4CC(N)C4)cc3c2C(C)C)cn(C)c(=O)c1C (stereo not drawn) [Example 492]
16 nM | 4.6 nM | 4200 nM | Cc1c(-c2[nH]c3ccc(C4CC(N)C4)cc3c2C(C)C)cn(C)c(=O)c1C (stereo not drawn) [Example 493]
